Data set [1] addresses T1, Xanthine dehydrogenase/oxidase (Bos taurus, UniProt P80457). The experiment in a line: Inhibition of bovine milk xanthine oxidoreductase pre-incubated for 3 mins followed xanthine substrate addition and measured every 1 mins for 10 mins by spectrophotometry.
Data set [2] is described as follows: Tmax in rat at 3 mg/kg, po measured during 5 mins to 24 hrs post dose by LC-MS/MS method. In kind it is ADME, organism-based. To be noted: in vivo.
The test system of data set [3] is Mus musculus. As to the kind of experiment: Hypouricemic effect in ICR mouse model of potassium oxonate and hypoxanthine-induced acute hyperuricemia assessed as reduction in serum uric acids level at 5 mg/kg, po dosed 1 hr after potassium oxonate and hypoxanthine challenge and measured after 1 to 4 hrs post dose. In kind it is functional, organism-based.
The test system of data set [4] is Mus musculus. As to the kind of experiment: Hypouricemic effect in ICR mouse model of potassium oxonate and hypoxanthine-induced acute hyperuricemia assessed as reduction in serum uric acids level at 5 mg/kg, po dosed 1 hr after potassium oxonate and hypoxanthine challenge and measured after 1 hr post dose. The class given is functional, organism-based.
Data set [5] in a line: Half life in rat at 10 mg/kg, po measured during 5 mins to 24 hrs post dose by LC-MS/MS method. The class given is ADME, organism-based. To be noted: in vivo.
The next data set deals with Rattus norvegicus. The experiment in a line: AUC (0 to infinity) in rat at 10 mg/kg, po measured during 5 mins to 24 hrs post dose by LC-MS/MS method. More on the design: dose 10 mg/kg, time infinity, route oral. The following applies: in vivo. The class given is ADME, organism-based.
Data set [6] deals with T1, Xanthine dehydrogenase/oxidase. The experiment in a line: Mixed type inhibition of bovine milk xanthine oxidoreductase pre-incubated for 3 mins using varying xanthine substrate levels and measured every 1 mins for 10 mins by spectrophotometry based Lineweaver-Burk plot. To be noted: cattle.
Data set [7] can be described thus: Tmax in rat at 10 mg/kg, po measured during 5 mins to 24 hrs post dose by LC-MS/MS method. The class given is ADME, organism-based. The following applies: in vivo.
Data set [8] is described as follows: Cmax in rat at 10 mg/kg, po measured during 5 mins to 24 hrs post dose by LC-MS/MS method. On the set-up: dose 10 mg/kg, route oral. The class given is ADME, organism-based. The following applies: in vivo.

Experimental findings from ChEMBL document CHEMBL4190341, “Synthesis and bioevaluation of 1-phenyl-pyrazole-4-carboxylic acid derivatives as potent xanthine oxidoreductase inhibitors” (Eur J Med Chem, 2017) are described below.

Calls of active or inactive are those of the source. No cut-off for these calls is given here.

T1 sequence (P80457 whole entry): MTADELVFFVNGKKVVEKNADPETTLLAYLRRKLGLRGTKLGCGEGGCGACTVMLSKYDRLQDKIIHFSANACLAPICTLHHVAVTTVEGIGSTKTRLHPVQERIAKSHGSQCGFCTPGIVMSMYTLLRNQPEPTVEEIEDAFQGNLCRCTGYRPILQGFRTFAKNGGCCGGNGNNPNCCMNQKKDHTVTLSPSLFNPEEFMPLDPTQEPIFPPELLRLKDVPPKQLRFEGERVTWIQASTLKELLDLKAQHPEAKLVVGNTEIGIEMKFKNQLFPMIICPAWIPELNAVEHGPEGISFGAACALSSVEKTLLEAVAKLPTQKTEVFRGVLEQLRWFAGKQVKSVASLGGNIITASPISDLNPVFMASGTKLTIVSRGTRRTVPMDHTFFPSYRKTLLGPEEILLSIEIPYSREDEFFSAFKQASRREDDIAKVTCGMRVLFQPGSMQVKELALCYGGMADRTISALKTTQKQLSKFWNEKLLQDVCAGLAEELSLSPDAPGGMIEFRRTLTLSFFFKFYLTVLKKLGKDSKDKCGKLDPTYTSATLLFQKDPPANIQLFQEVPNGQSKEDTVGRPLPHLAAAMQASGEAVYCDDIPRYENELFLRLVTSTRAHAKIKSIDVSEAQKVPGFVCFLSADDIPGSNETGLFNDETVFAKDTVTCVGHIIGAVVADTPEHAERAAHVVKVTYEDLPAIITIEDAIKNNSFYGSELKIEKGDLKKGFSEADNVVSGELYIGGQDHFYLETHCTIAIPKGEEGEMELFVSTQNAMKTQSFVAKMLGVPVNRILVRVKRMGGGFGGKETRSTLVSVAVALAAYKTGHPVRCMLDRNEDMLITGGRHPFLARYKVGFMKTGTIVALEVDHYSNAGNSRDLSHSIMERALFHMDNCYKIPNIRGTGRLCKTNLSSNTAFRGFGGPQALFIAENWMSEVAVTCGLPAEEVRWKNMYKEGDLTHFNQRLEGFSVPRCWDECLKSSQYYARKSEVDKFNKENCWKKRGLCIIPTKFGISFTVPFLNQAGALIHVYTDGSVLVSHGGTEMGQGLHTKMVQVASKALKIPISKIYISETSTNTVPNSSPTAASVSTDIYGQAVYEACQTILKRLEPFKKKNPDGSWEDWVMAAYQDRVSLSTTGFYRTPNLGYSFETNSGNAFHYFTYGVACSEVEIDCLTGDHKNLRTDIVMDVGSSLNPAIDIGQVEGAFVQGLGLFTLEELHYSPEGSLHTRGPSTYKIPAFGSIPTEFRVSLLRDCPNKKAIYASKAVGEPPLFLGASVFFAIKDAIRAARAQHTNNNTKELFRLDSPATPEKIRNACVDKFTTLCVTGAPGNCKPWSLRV

In data set [1], `Cc1nn(-c2ccc(OC(C)C)c(C#N)c2)cc1C(=O)O` came in with an IC50 of 45 nM.

`Cc1nn(-c2ccc(N3CCOCC3)c([N+](=O)[O-])c2)cc1C(=O)O` had an IC50 in [1] above 100 nM.

In the case of `Cc1nn(-c2ccc(N3CCCCC3)c(C#N)c2)cc1C(=O)O`, in data set [1], 13.3 nM corresponded to half-maximal inhibition (IC50).

As for `CC(C)(C)COc1ccc(-n2cc(C(=O)O)cn2)cc1C#N`, the Tmax in [2] is 0.5 h.

`CC(C)CNc1ccc(-n2cc(C(=O)O)cn2)cc1C#N` displayed an IC50 in data set [1] of 7.7 nM.

On to `N#Cc1cc(-n2cc(C(=O)O)cn2)ccc1N1CCCCC1`, for which the IC50 in [1] came to 4.2 nM. Also, the result in the data set on Mus musculus [3] and with Mus musculus [4] was Active.

Take `Cc1nn(-c2ccc(N3CCCCC3)c([N+](=O)[O-])c2)cc1C(=O)O`: the IC50 in data set [1] is 59.6 nM.

For `CC1CCCN1c1ccc(-n2cc(C(=O)O)cn2)cc1C#N` (stereo not given), the IC50 in [1] came out at 6.7 nM.

On to `CC(C)COc1ccc(-n2cc(C(=O)O)c(C(F)(F)F)n2)cc1C#N`, for which the IC50 in [1] was above 100 nM.

For the compound `CCOc1ccc(-n2cc(C(=O)O)c(C(F)(F)F)n2)cc1C#N`, in data set [1], the IC50 is above 100 nM.

In data set [1], `CC(C)Oc1ccc(-n2cc(C(=O)O)c(C(F)(F)F)n2)cc1C#N` had an IC50 above 100 nM.

In [1], `CCCCCCCCOc1ccc(-n2cc(C(=O)O)c(C)n2)cc1C#N` yielded an IC50 above 100 nM.

In turn, `CN(C)c1ccc(-n2cc(C(=O)O)cn2)cc1C#N` returned an IC50 in data set [1] of 10.8 nM.

With `Cc1nn(-c2ccc(N3CCOCC3)c(C#N)c2)cc1C(=O)O`, the IC50 in [1] is above 100 nM.

Regarding `N#Cc1cc(-n2cc(C(=O)O)cn2)ccc1N1CCCC1`, in data set [1], the IC50 was determined as 5.7 nM.

`Cc1nc(-c2ccc(OCC(C)C)c(C#N)c2)sc1C(=O)O`: the result in the data set with Mus musculus [4] was Active.

`Cc1nn(-c2ccc(OCC(C)(C)C)c(C#N)c2)cc1C(=O)O` displayed an IC50 in data set [1] of 23 nM.

For the compound `CCOc1ccc(-n2cc(C(=O)O)c(C)n2)cc1C#N`, the IC50 in data set [1] is above 100 nM.

Compound `CCCCCCCCOc1ccc(-n2cc(C(=O)O)c(C(F)(F)F)n2)cc1C#N` registered an IC50 in [1] above 100 nM.

As to `CC(C)CN(C)c1ccc(-n2cc(C(=O)O)cn2)cc1C#N`, the half-life in data set [5] was 5 h. The compound further showed an IC50 in data set [1] of 5.7 nM. Besides, the outcome in the data set on Mus musculus [3] and in the data set with Mus musculus [4] was Active. Besides, the AUC in the data set with Rattus norvegicus was 607 ng·h/mL. Further, the “inhibition (INH)” value in [6] is reported as “Active”. In addition, in data set [7], the Tmax amounted to 1 h. Further, the Cmax in [8] turned out to be 168 ng/mL.

In turn, `CC(C)(C)COc1ccc(-n2cc(C(=O)O)c(C(F)(F)F)n2)cc1C#N` showed an IC50 in data set [1] above 100 nM.
